The source of these data is patent US9850256B2, “Antibacterial basic biaromatic derivatives with aminoalkoxy substitution” (priority 2014, dated 2017).

What all share (assay): Bacterial growth minimal inhibitory concentration (microdilution, cation-adjusted Mueller-Hinton Broth)
A general note: Dilution methods test growth across graded concentrations, often in twofold steps.

In one assay the test system is K. pneumoniae T6474. Type of assay: cell-based, Klebsiella pneumoniae. As to conditions: Klebsiella pneumoniae, T6474; multiply-resistant strain (penicillin-, cephalosporin- and quinolone-resistant). On the procedure: (§1) Minimal Inhibitory Concentrations (MICs; mg/L) were determined in cation-adjusted Mueller-Hinton Broth by a microdilution method following the description given in “Methods for Dilution Antimicrobial Susceptibility Tests for Bacteria that Grow Aerobically”, Approved standard, 7th ed., Clinical and Laboratory Standards Institute (CLSI) Document M7-A7, Wayne, Pa., USA (2006).
(§2) All Example compounds were tested against several Gram positive and Gram negative bacteria. […] Staphylococcus aureus A798 is a multiply-resistant strain (methicillin- and quinolone-resistant), Klebsiella pneumoniae T6474 is a multiply-resistant strain (penicillin-, cephalosporin- and in particular quinolone-resistant), while E. coli ATCC25922 and Pseudomonas aeruginosa ATCC 27853 are quinolone-sensitive strains.

Another assay concerns P. aeruginosa ATCC 27853. Type of assay: cell-based, Pseudomonas aeruginosa. As to conditions: Pseudomonas aeruginosa, ATCC27853; quinolone-sensitive strain. How it is done:
as §1, §2

Another assay concerns E. coli ATCC25922. It counts as cell-based. As to conditions: Escherichia coli, ATCC25922; quinolone-sensitive strain. How it is done:
as §1, §2

The next assay concerns S. aureus A798. Type of assay: cell-based, Staphylococcus aureus. Conditions: Staphylococcus aureus, A798; multiply-resistant strain (methicillin- and quinolone-resistant). On the procedure: as §1, §2

≈ marks a conversion by molar mass, not a printed value. Where only a bound is given, the exact number is not on record here.

By MIC is commonly meant the lowest concentration that inhibits growth of the organism. Read a low MIC as inhibition by little substance. On to `CN1CC(Oc2cccc(-c3ccnc(CNCC[C@H]4CN(c5ccc6c(n5)NC(=O)CO6)C(=O)O4)c3)n2)C1` [Example $186, 6-[(S)-5-(2-{[6-(1-methyl-azetidin-3-yloxy)-[2,4′]bipyridinyl-2′-ylmethyl]-amino}-ethyl)-2-oxo-oxazolidin-3-yl]-4H-pyrido[3,2-b][1,4]oxazin-3-one], for which the minimal inhibitory concentration (MIC) in the assay with K. pneumoniae T6474 worked out at 1 µg/mL (≈ 1.88 µM); against P. aeruginosa ATCC 27853, 0.5 µg/mL (≈ 0.941 µM); with E. coli ATCC25922, 0.5 µg/mL (≈ 0.941 µM); with S. aureus A798, 0.25 µg/mL (≈ 0.47 µM).

In the case of `CN1CC[C@@H](Oc2cnnc(-c3cccc(CNCC[C@H]4CN(c5ccc6c(n5)NC(=O)CO6)C(=O)O4)c3)c2)C1` [Example $166, 6-[(S)-5-(2-{3-[5-((R)-1-methyl-pyrrolidin-3-yloxy)-pyridazin-3-yl]-benzylamino}-ethyl)-2-oxo-oxazolidin-3-yl]-4H-pyrido[3,2-b][1,4]oxazin-3-one], the MIC against K. pneumoniae T6474 came out at 4 µg/mL (≈ 7.33 µM); in the assay on P. aeruginosa ATCC 27853, 4 µg/mL (≈ 7.33 µM); against E. coli ATCC25922, 2 µg/mL (≈ 3.67 µM); in the assay on S. aureus A798, 4 µg/mL (≈ 7.33 µM).

As for `C[C@H](N)COc1cccc(-c2cccc(CNCC[C@H]3CN(c4ccc5c(n4)NC(=O)CO5)C(=O)O3)c2)n1` [Example 18, 6-[(S)-5-(2-{3-[6-((S)-2-amino-propoxy)-pyridin-2-yl]-benzylamino}-ethyl)-2-oxo-oxazolidin-3-yl]-4H-pyrido[3,2-b][1,4]oxazin-3-one], the MIC with K. pneumoniae T6474 turned out to be 2 µg/mL (≈ 3.86 µM); against P. aeruginosa ATCC 27853, 1 µg/mL (≈ 1.93 µM); in the assay with E. coli ATCC25922, 1 µg/mL (≈ 1.93 µM); with S. aureus A798, 0.5 µg/mL (≈ 0.964 µM).

For `O=C1COc2ccc(N3C[C@H](CCNCc4cccc(-c5cccc(OCC6CNC6)n5)c4)OC3=O)nc2N1` [Example $106, 6-[(S)-5-(2-{3-[6-(azetidin-3-ylmethoxy)-pyridin-2-yl]-benzylamino}-ethyl)-2-oxo-oxazolidin-3-yl]-4H-pyrido[3,2-b][1,4]oxazin-3-one], the MIC in the assay with K. pneumoniae T6474 was found to be 4 µg/mL (≈ 7.54 µM); with P. aeruginosa ATCC 27853, 1 µg/mL (≈ 1.88 µM); in the assay with E. coli ATCC25922, 2 µg/mL (≈ 3.77 µM); against S. aureus A798 it was 2 µg/mL (≈ 3.77 µM).

For the molecule `CNCCOc1cccc(-c2cccc(CNCC[C@H]3CN(c4ccc5c(n4)NC(=O)CO5)C(=O)O3)c2)c1` [Example 4, 6-[(S)-5-(2-{[3′-(2-methylamino-ethoxy)-biphenyl-3-ylmethyl]-amino}-ethyl)-2-oxo-oxazolidin-3-yl]-4H-pyrido[3,2-b][1,4]oxazin-3-one], the MIC with K. pneumoniae T6474 came out at 2 µg/mL (≈ 3.86 µM); against P. aeruginosa ATCC 27853, 2 µg/mL (≈ 3.86 µM); against E. coli ATCC25922, 1 µg/mL (≈ 1.93 µM); with S. aureus A798, 2 µg/mL (≈ 3.86 µM).

Consider `CN1CCC[C@H](Oc2cccc(-c3cccc(CNCCC4CN(c5ccc6c(n5)NC(=O)CO6)C(=O)O4)c3)n2)C1` (mixture of isomers) [Example $142, 6-[(RS)-5-(2-{3-[6-((S)-1-methyl-piperidin-3-yloxy)-pyridin-2-yl]-benzylamino}-ethyl)-2-oxo-oxazolidin-3-yl]-4H-pyrido[3,2-b][1,4]oxazin-3-one], for which the MIC was 2 µg/mL with K. pneumoniae T6474, 2 µg/mL in the assay on P. aeruginosa ATCC 27853, 2 µg/mL against E. coli ATCC25922 and 0.5 µg/mL against S. aureus A798.

`CN1CC(COc2cccc(-c3cccc(CNCC[C@H]4CN(c5ccc6c(n5)NC(=O)CO6)C(=O)O4)c3)n2)C1` [Example $113, 6-[(S)-5-(2-{3-[6-(1-methyl-azetidin-3-ylmethoxy)-pyridin-2-yl]-benzylamino}-ethyl)-2-oxo-oxazolidin-3-yl]-4H-pyrido[3,2-b][1,4]oxazin-3-one]: the MIC in the assay with K. pneumoniae T6474 stood at 2 µg/mL (≈ 3.67 µM); in the assay on P. aeruginosa ATCC 27853 it was 2 µg/mL (≈ 3.67 µM); in the assay on E. coli ATCC25922, 2 µg/mL (≈ 3.67 µM); against S. aureus A798, 0.5 µg/mL (≈ 0.918 µM).

As for `O=C1COc2ccc(N3C[C@H](CCNCc4cccc(-c5cccc(OCCN6CCCCC6)n5)c4)OC3=O)nc2N1` [Example 12, 6-[(S)-2-oxo-5-(2-{3-[6-(2-piperidin-1-yl-ethoxy)-pyridin-2-yl]-benzylamino}-ethyl)-oxazolidin-3-yl]-4H-pyrido[3,2-b][1,4]oxazin-3-one], the MIC came to 2 µg/mL (≈ 3.49 µM) in the assay on K. pneumoniae T6474, 2 µg/mL (≈ 3.49 µM) against P. aeruginosa ATCC 27853, 1 µg/mL (≈ 1.75 µM) in the assay with E. coli ATCC25922 and 0.063 µg/mL (≈ 0.11 µM) with S. aureus A798.

With `CN1CCC[C@@H]1COc1cccc(-c2cccc(CNCC[C@H]3CN(c4ccc5c(n4)NC(=O)CO5)C(=O)O3)c2)n1` [Example $171, 6-[(S)-5-(2-{3-[6-((R)-1-methyl-pyrrolidin-2-ylmethoxy)-pyridin-2-yl]-benzylamino}-ethyl)-2-oxo-oxazolidin-3-yl]-4H-pyrido[3,2-b][1,4]oxazin-3-one], the MIC came out at 1 µg/mL (≈ 1.79 µM) against K. pneumoniae T6474, 1 µg/mL (≈ 1.79 µM) in the assay on P. aeruginosa ATCC 27853, 1 µg/mL (≈ 1.79 µM) in the assay on E. coli ATCC25922 and 0.25 µg/mL (≈ 0.448 µM) in the assay on S. aureus A798.

As for `C[C@@H]1CN(C)C[C@H]1Oc1cccc(-c2cccc(CNCC[C@H]3CN(c4ccc5c(n4)NC(=O)CO5)C(=O)O3)c2)n1` (relative stereo) [Example $177, 6-[(S)-5-(2-{3-[6-((3S*,4R*)-1,4-dimethyl-pyrrolidin-3-yloxy)-pyridin-2-yl]-benzylamino}-ethyl)-2-oxo-oxazolidin-3-yl]-4H-pyrido[3,2-b][1,4]oxazin-3-one], the MIC was determined as 4 µg/mL (≈ 7.16 µM) in the assay with K. pneumoniae T6474, 4 µg/mL (≈ 7.16 µM) in the assay with P. aeruginosa ATCC 27853, 2 µg/mL (≈ 3.58 µM) against E. coli ATCC25922 and 0.5 µg/mL (≈ 0.895 µM) against S. aureus A798.

Turning to `O=C1COc2ccc(N3C[C@H](CCNCc4cccc(-c5cc(O[C@@H]6CCNC6)cnn5)c4)OC3=O)nc2N1` [Example $180, 6-[(S)-2-oxo-5-(2-{3-[5-((R)-pyrrolidin-3-yloxy)-pyridazin-3-yl]-benzylamino}-ethyl)-oxazolidin-3-yl]-4H-pyrido[3,2-b][1,4]oxazin-3-one], the MIC against K. pneumoniae T6474 was over 16 µg/mL; with P. aeruginosa ATCC 27853, 4 µg/mL (≈ 7.52 µM); in the assay on E. coli ATCC25922 it was 16 µg/mL (≈ 30.1 µM); in the assay on S. aureus A798, over 16 µg/mL.

For `CN1CC[C@@H](Oc2cccc(-c3cccc(CNCC[C@H]4CN(c5ccc6c(n5)NC(=O)CO6)C(=O)O4)c3)n2)C1` [Example $120, 6-[(S)-5-(2-{3-[6-((R)-1-methyl-pyrrolidin-3-yloxy)-pyridin-2-yl]-benzylamino}-ethyl)-2-oxo-oxazolidin-3-yl]-4H-pyrido[3,2-b][1,4]oxazin-3-one], the MIC in the assay on K. pneumoniae T6474 stood at 2 µg/mL (≈ 3.67 µM); against P. aeruginosa ATCC 27853 it was 2 µg/mL (≈ 3.67 µM); against E. coli ATCC25922 it was 1 µg/mL (≈ 1.84 µM); against S. aureus A798, 0.5 µg/mL (≈ 0.918 µM).

Regarding `CN1CC[C@@H](Oc2cccc(-c3cccc(CNCC[C@H]4CN(c5ccc6c(c5)NC(=O)CS6)C(=O)O4)c3)n2)C1` [Example $168, 6-[(S)-5-(2-{3-[6-((R)-1-methyl-pyrrolidin-3-yloxy)-pyridin-2-yl]-benzylamino}-ethyl)-2-oxo-oxazolidin-3-yl]-4H-benzo[1,4]thiazin-3-one], the MIC against K. pneumoniae T6474 was found to be 2 µg/mL (≈ 3.57 µM); against P. aeruginosa ATCC 27853, 2 µg/mL (≈ 3.57 µM); in the assay with E. coli ATCC25922 it was 2 µg/mL (≈ 3.57 µM); against S. aureus A798, 1 µg/mL (≈ 1.79 µM).

`NCCOc1cncc(-c2ccnc(CNCC[C@H]3CN(c4ccc5c(n4)NC(=O)CO5)C(=O)O3)c2)n1` [Example $158, 6-{(S)-5-[2-({4-[6-(2-amino-ethoxy)-pyrazin-2-yl]-pyridin-2-ylmethyl}-amino)-ethyl]-2-oxo-oxazolidin-3-yl}-4H-pyrido[3,2-b][1,4]oxazin-3-one]: the MIC turned out to be 16 µg/mL (≈ 31.6 µM) with K. pneumoniae T6474, 2 µg/mL (≈ 3.95 µM) with P. aeruginosa ATCC 27853, 8 µg/mL (≈ 15.8 µM) with E. coli ATCC25922 and 4 µg/mL (≈ 7.9 µM) in the assay on S. aureus A798.

Turning to `CN1CC[C@H](Oc2cccc(-c3cccc(CNCC[C@H]4CN(c5ccc6c(n5)NC(=O)CO6)C(=O)O4)n3)n2)C1` [Example $129, 6-[(S)-5-(2-{[6′-((S)-1-methyl-pyrrolidin-3-yloxy)-[2,2′]bipyridinyl-6-ylmethyl]-amino}-ethyl)-2-oxo-oxazolidin-3-yl]-4H-pyrido[3,2-b][1,4]oxazin-3-one], the MIC against K. pneumoniae T6474 was 4 µg/mL (≈ 7.33 µM); against P. aeruginosa ATCC 27853, 8 µg/mL (≈ 14.7 µM); in the assay on E. coli ATCC25922 it was 4 µg/mL (≈ 7.33 µM); in the assay on S. aureus A798, 2 µg/mL (≈ 3.67 µM).

Regarding `CN1CC[C@H](COc2cccc(-c3cccc(CNCC[C@H]4CN(c5ccc6c(n5)NC(=O)CO6)C(=O)O4)c3)n2)C1` [Example $141, 6-[(S)-5-(2-{3-[6-((S)-1-methyl-pyrrolidin-3-ylmethoxy)-pyridin-2-yl]-benzylamino}-ethyl)-2-oxo-oxazolidin-3-yl]-4H-pyrido[3,2-b][1,4]oxazin-3-one], the minimum inhibitory concentration (MIC) turned out to be 2 µg/mL (≈ 3.58 µM) in the assay with K. pneumoniae T6474, 2 µg/mL (≈ 3.58 µM) with P. aeruginosa ATCC 27853, 2 µg/mL (≈ 3.58 µM) in the assay on E. coli ATCC25922 and 0.5 µg/mL (≈ 0.895 µM) in the assay with S. aureus A798.

With `COc1cc(OCCN)cc(-c2cccc(CNCC[C@H]3CN(c4ccc5c(n4)NC(=O)CO5)C(=O)O3)c2)n1` [Example $161, 6-[(S)-5-(2-{3-[4-(2-amino-ethoxy)-6-methoxy-pyridin-2-yl]-benzylamino}-ethyl)-2-oxo-oxazolidin-3-yl]-4H-pyrido[3,2-b][1,4]oxazin-3-one], the MIC amounted to 1 µg/mL (≈ 1.87 µM) against K. pneumoniae T6474, 1 µg/mL (≈ 1.87 µM) against P. aeruginosa ATCC 27853, 0.5 µg/mL (≈ 0.935 µM) against E. coli ATCC25922 and 0.5 µg/mL (≈ 0.935 µM) against S. aureus A798.

Turning to `O=C1COc2ccc(N3C[C@H](CCNCc4cccc(-c5nccc(O[C@@H]6CCNC6)n5)c4)OC3=O)nc2N1` [Example $115, 6-[(S)-2-oxo-5-(2-{3-[4-((R)-pyrrolidin-3-yloxy)-pyrimidin-2-yl]-benzylamino}-ethyl)-oxazolidin-3-yl]-4H-pyrido[3,2-b][1,4]oxazin-3-one], the MIC in the assay with K. pneumoniae T6474 worked out at 16 µg/mL (≈ 30.1 µM); with P. aeruginosa ATCC 27853, 2 µg/mL (≈ 3.76 µM); in the assay on E. coli ATCC25922 it was 4 µg/mL (≈ 7.52 µM); against S. aureus A798, 4 µg/mL (≈ 7.52 µM).
